Converted amounts (≈) assume the structure as drawn. Where two headings read alike, the source gives them in different places.
Assays:
[1] = tested on: B16 melanoma cells; test: Melanogenesis inhibition test; assay type: cell-based; conditions: for IC50: Mus musculus; for Melanogenesis inhibition rate (%, vs control): 72 hours culture, melanin per protein
Experimental: B16 melanoma cells were plated at 10^4 cells/well in a MEM medium containing 10 vol % fetal bovine serum in a 12-well plate and were precultured for 24 hours. After the preculture, the medium was replaced with a medium obtained by adding a predetermined concentration of the sample compound to the above medium to which is added 2 mmol/L of theophylline, and culture was carried out for 72 hours. […] Further, the cells were dissolved in a 1 mol/L aqueous sodium hydroxide solution containing 10 vol % dimethyl sulfoxide. The OD475 was measured and the value was used as an indicator of the amount of melanin. Thereafter, the amount of total protein in the solution was determined using Coomasie Plus Protein Assay Reagent Kit (manufactured by PIERCE) to calculate the amount of melanin per amount of protein. The melanogenesis inhibition rate (%) relative to a control was determined with a case where the sample compound was not added as the control.
Melanogenesis inhibition curves of the monoacetyl and diacetyl derivatives of propylbiphenol of Preparation Example 1 according to the present invention were made based on the results of the melanogenesis inhibition test (FIGS. 6 and 7). IC50 values, which is the concentration values supposed to inhibit 50% of melanogenesis, were determined from the inhibition curves.

[2] = Solubility test in water or organic solvent; assay type: physicochemical; conditions: room temperature, visually observed; for Solubility in Ethyl acetate: 0.1 g sample in 1 ml ethyl acetate; for solubility: thermodynamic from solid
Experimental: 0.1 g of each sample was weighed and 1 ml of water or an organic solvent was accurately added thereto. After agitating the mixture with a test tube mixer (VORTEX), it was allowed to stand at room temperature and the state was visually observed. Solubility was evaluated as “o”, when a sample was completely dissolved. Solubility was evaluated as “Δ”, when a sample was approximately half dissolved. Solubility was evaluated as “x”, when a sample was almost not dissolved. Propylbiphenol that was a starting material for each Preparation Example was also evaluated as Comparative Example 1.

[3] = B16, determined from melanogenesis inhibition curves, read-out: IC50 value (concentration supposed to inhibit 50% of melanogenesis)
[4] = addition concentration 10 μg/ml
[5] = 0.1 g sample in 1 ml water, read-out: Solubility in Water

Compound | IC50 [1, 3] [µg/mL] | Melanogenesis inhibition rate (%, vs control) ([1]; addition concentration 1 μg/ml) [%] | Melanogenesis inhibition rate (%, vs control) ([1]; addition concentration 3 μg/ml) [%] | Melanogenesis inhibition rate (%, vs control) [1, 4] [%] | Melanogenesis inhibition rate (%, vs control) ([1]; addition concentration 30 μg/ml) [%] | Solubility in Ethyl acetate [2] | Solubility in Methanol ([2]; 0.1 g sample in 1 ml methanol) | Solubility in n-hexane ([2]; 0.1 g sample in 1 ml n-hexane) | solubility [2, 5] [mg/mL] | IC50 ([1]; B16, read-out: IC50 value (concentration supposed to inhibit 50% of melanogenesis)) [µg/mL] | solubility ([2]; organic solvent or mixture, 0.1 g sample in 1 ml methanol, read-out: Solubility in Methanol) [mg/mL] | solubility ([2]; organic solvent or mixture, 0.1 g sample in 1 ml n-hexane, read-out: Solubility in n-hexane) [mg/mL]
CCCc1ccc(OC(C)=O)c(-c2cc(CCC)ccc2OC(C)=O)c1 [Diacetyl derivative] | 6.5 (≈ 0.0183 mM) | −15.5 | −16.6 | 72.0 | 83.8 | ∘ | ∘ | ∘ | < 25 |  |  | 
CCCc1ccc(OC(=O)CC)c(-c2cc(CCC)ccc2OC(=O)CC)c1 [Dipropionyl derivative] |  |  |  |  |  | ∘ | ∘ | ∘ | < 25 |  |  | 
CCCc1ccc(O)c(-c2cc(CCC)ccc2OC(C)=O)c1 [Monoacetyl derivative] | 7 (≈ 0.0224 mM) | −11.6 | −9.8 | 100 |  | ∘ | ∘ | ∘ | < 25 |  |  | 
CCCCCCCC(=O)Oc1ccc(CCC)cc1-c1cc(CCC)ccc1O [Monooctanoyl derivative] |  |  |  |  |  | ∘ | ∘ | ∘ | < 25 |  |  | 
CCCc1ccc(O)c(-c2cc(CCC)ccc2O)c1 [Propylbiphenol, 2,2′-dihydroxy-5,5′-di-n-propyl-biphenyl, reference compound] |  |  |  |  |  | ∘ |  |  | < 25 | 4 (≈ 0.0148 mM) | 25 to 100 (≈ 92.5 to 370 mM) | < 25
OC[C@H]1O[C@@H](Oc2ccc(O)cc2)[C@H](O)[C@@H](O)[C@@H]1O [arbutin, reference compound] | 20 (≈ 0.0735 mM) |  |  |  |  |  |  |  |  |  |  | 
